Values of other authors as cited in patent US8025907B2, “Cosmetic composition to accelerate repair of functional wrinkles” (priority 2005, dated 2011).

Assays:
[1] = test system: forehead expression lines; conditions: 28 days

**Q.** For “Dipeptide Diaminobutyroyl Benzalamide Diacetate”, which “reduction of forehead expression lines” value [1] is on record?
**A.** Its value is “up to 52%”.

**Q.** With acetyl hexapeptide-3 as the substance, how does the “wrinkle depth reduction by the hexapeptide component” value (wrinkles; after thirty days, after factoring the influence of the cosmetic base ingredient) read?
**A.** The value was “less than 30%”.

**Q.** What about the “time before a visible reduction in wrinkles can occur” value (wrinkles; on average) of the same substance?
**A.** Its value is “up to 30 days”.
